Measurements: patent publication US20090137517A1, “SENSITIZING A CELL TO CANCER TREATMENT BY MODULATING THE ACTIVITY OF A NUCLEIC ACID ENCODING RPS27L PROTEIN” (Agency for Science, Technology and Research, priority 2006, published 2009)

How the values were obtained:
Type in all cases: cell-based, human
[1] = system: RPS27L mRNA; experiment: RT-PCR of RPS27L mRNA after drug treatment of HCT116 cells; settings: p53 wild-type HCT116 cells; ADR (1 μM) or 5-FU (375 μM); not in p53 null cells
Text: FIG. 1A depicts the microarray analysis showing a set of genes whose expression was induced by the DNA damaging agents adriamycin (ADR) and 5-fluorouracil (5-FU) in p53 wild-type HCT116 cells (human colorectal carcinoma cell line containing wild type p53) but not in the p53 null counterpart. In both treatments, RPS27L, together with bona fide p53 targets such as cdkn1a (encodes p21), Pmaid (encodes Noxa) and ccd3 (encodes Puma), was unregulated in a p53-dependent manner. To validate the microarray data, RT-PCR analysis was performed (FIG. 1B).
The human colon carcinoma cell line HCT116 and its p53 knock-out derivate cells were kindly provided by Dr. Bert Vogelstein. HCT116 cells can also be purchased under the ATCC number: CCL 247. The human osteosarcoma cell lines U2OS and Saos-2 can be purchased under the following ATCC numbers: U2OS, ATCC HTB-96; Saos-2, ATCC HTB-85 and SH-SY5Y, ATCC CRL-2266. Cells were grown in DMEM supplemented with 10% fetal bovine serum and penicillin-streptomycin (Invitrogen). Adriamycin, etoposide phosphate (VP16®) and 5-fluorouracil were purchased from Sigma-Aldrich.
All RT-PCR was performed using the Titanium One Step RT-PCR Kit (BD Clontech).

[2] = system: RPS27L protein; experiment: Western blot of RPS27L protein levels in HCT116 cells; settings: ADR (1 μM), 5-FU (375 μM), nutlin-3 (10 μM)
Experimental: (§1) To investigate whether the p53-induced increase in RPS27L mRNA also gives rise to the increased protein levels, immunoblot analysis of p53 wild-type and p53 null HCT116 cells treated with ADR, 5-FU or nutlin-3, a small molecule MDM2 antagonist that directly activates p53 (Vassilev, L. T., Vu, B. T., et al. (2004) “In vivo activation of the p53 pathway by small-molecule antagonists of MDM2” Science, vol. 303, p. 844-848) was performed. […] To extend this observations to other cell lines and to other p53 stimuli, U2OS (human osteosarcoma cell line) and SH-SY5Y (human neuroblastoma cell line) cells (p53 wild type) as well as Saos-2 cells (human osteosarcoma cell line, p53-deficient) were treated with ADR, etoposide phosphate (VP16®) and 5-FU (FIG. 2B). […] Obviously, 5-FU treatment activates a posttranslational mechanism that causes RPS27L protein downregulation in spite of the increased mRNA expression.
(§2) Cells were harvested and lysed with RIPA buffer (50 mM Tris-HCl, pH7.4, 1 mM EDTA, 150 mM NaCl, 1% Nonidet P-40, 0.5% sodium deoxycholate and proteinase inhibitors). The lysates were clarified by centrifugation at 16,000×g for 15 minutes at 4° C. Protein concentrations were determined with the Bradford Protein Assay Kit (Bio-Rad). 20-50 μg protein samples were separated by SDS-PAGE, transferred onto an Immobilon membrane (Millipore) and blotted with antibodies. Anti-p53 and anti-p21 antibodies were from Santa Cruz; anti-MDM2 and anti-Puma antibodies were from Merck. The rabbit polyconal antibody to RPS27L was raised against a 14 amino acid peptide from human RPS27L (SEQ ID NO: 2: LHPSLEEEKKKHKK).

[3] = system: RPS27L protein; experiment: Western blot of RPS27L protein in U2OS, SH-SY5Y and Saos-2 cells; settings: U2OS and SH-SY5Y (p53 wild type), Saos-2 (p53-deficient); VP16 (10 μM), ADR (1 μM), 5-FU (375 μM)
Experimental: as §1, §2

[4] = system: HCT116 cells; experiment: Alkaline single cell gel electrophoresis (comet) assay; settings: RPS27L-depleted versus control HCT116 cells, ADR 24 h
Experimental: In order to examine DNA damage directly, the comet assay was used next. […] Cells were incubated with ADR for 24 h and were harvested and processed for the comet assay.
The treated cells were subjected to a single cell gel electrophoresis (comet) assay as described earlier (Poonepalli, A., Balakrishnan, L., et al. (2005), supra) and stained with SYBR green dye. The tail moment of the comets was generated using the Metasystems (Germany) analysis software ‘Comet imager version 1.2’. Fifty randomly chosen comets were analyzed per sample. The extent of DNA damage observed was expressed as tail moment, which corresponded to the fraction of the DNA in the tail of the comet.

[5] = system: HCT116 cells; experiment: Cytokinesis blocked micronucleus (CBMN) assay; settings: RPS27L-depleted HCT116 cells, ADR (1 μM) 24 h
Experimental: In order to examine DNA damage directly, the comet assay was used next. The comet assay is a single cell gel electrophoresis assay in which damaged DNA migrates to form a “comet tail” that is proportional to the amount of DNA damage (Collins, A. R. (2004) “The comet assay for DNA damage and repair: principles, applications, and limitations” Mol Biotechnol, vol. 26, p. 249-261). Cells were incubated with ADR for 24 h and were harvested and processed for the comet assay. […] We then investigated whether elevated DNA damage has caused chromosome instability. […]
After treatment with ADR, cells were incubated with cytochalasin B (Sigma, 5 μg/ml) for an additional 22 h. […] Fixed cells were dropped onto clean slides and stained with 3 μg/ml Acridine Orange (which differentially stains cytoplasm and nucleus) (Hande, M. P., et al. (1996) “Induction and persistence of cytogenetic damage in mouse splenocytes following whole-body X-irradiation analysed by fluorescence in situ hybridization. II. Micronuclei.” Int J Radiat Biol.; vol. 70(4), p. 375-83; Hande, M. P., et al. (1997) “Induction and persistence of cytogenetic damage in mouse splenocytes following whole-body X-irradiation analysed by fluorescence in situ hybridization. III. Chromosome malsegregation/aneuploidy” Mutagenesis, vol. […] One thousand binucleated cells were scored for each sample.

[6] = system: p53 and its downstream targets p21, puma and MDM2; experiment: Immunoblot of p53 and its targets in control and RPS27L-depleted HCT116 cells; settings: RPS27L-depleted versus control HCT116 cells
Experimental: As RPS27L depletion sensitizes only p53 wild-type cells to DNA damage, the inventors next assessed the effect of RPS27L loss on p53 signaling pathway. The effects of RPS27L depletion on p53 and its downstream targets p21, puma and MDM2 was examined by immunoblot analysis. […] By contrast, p53-dependent activation of Puma and MDM2 were not decreased upon RPS27L loss.
as §2

SMILES: COc1cccc2c1C(=O)c1c(O)c3c(c(O)c1C2=O)C[C@@](O)(C(=O)CO)C[C@@H]3O[C@H]1C[C@H](N)[C@H](O)[C@H](C)O1 [ADR, adriamycin]
- RPS27L mRNA [1]: induced
- RPS27L protein level [2]: increased RPS27L protein levels
- RPS27L protein level [3]: p53-dependent upregulation of RPS27L protein
- DNA damage (comet tail moment) [4]: significantly enhanced
- micronucleus frequency [5]: increased micronucleus frequency
- p53-dependent activation of Puma and MDM2 ([6]; ADR (1 μM)): not decreased
- effect of RPS27L depletion on ADR-induced p53 activation ([6]; ADR (1 μM) 24 and 48 hours): no significant effect
- p21 accumulation in response to ADR ([6]; ADR (1 μM) 24 and 48 hours): significant reduced
